The values that follow come from patent publication US8927718B2, “Fused heterocyclic ring derivative and use thereof” (Takeda Pharmaceutical Company Limited, priority 2009, dated 2015).

SMILES strings stand for the structures.

The target in this test is T1, Smo (Mus musculus, UniProt P56726).
T1 construct: endogenous in cells; host or cells: NIH-3T3 cells stably carrying the Gli luciferase reporter
T1 sequence (P56726 33-793): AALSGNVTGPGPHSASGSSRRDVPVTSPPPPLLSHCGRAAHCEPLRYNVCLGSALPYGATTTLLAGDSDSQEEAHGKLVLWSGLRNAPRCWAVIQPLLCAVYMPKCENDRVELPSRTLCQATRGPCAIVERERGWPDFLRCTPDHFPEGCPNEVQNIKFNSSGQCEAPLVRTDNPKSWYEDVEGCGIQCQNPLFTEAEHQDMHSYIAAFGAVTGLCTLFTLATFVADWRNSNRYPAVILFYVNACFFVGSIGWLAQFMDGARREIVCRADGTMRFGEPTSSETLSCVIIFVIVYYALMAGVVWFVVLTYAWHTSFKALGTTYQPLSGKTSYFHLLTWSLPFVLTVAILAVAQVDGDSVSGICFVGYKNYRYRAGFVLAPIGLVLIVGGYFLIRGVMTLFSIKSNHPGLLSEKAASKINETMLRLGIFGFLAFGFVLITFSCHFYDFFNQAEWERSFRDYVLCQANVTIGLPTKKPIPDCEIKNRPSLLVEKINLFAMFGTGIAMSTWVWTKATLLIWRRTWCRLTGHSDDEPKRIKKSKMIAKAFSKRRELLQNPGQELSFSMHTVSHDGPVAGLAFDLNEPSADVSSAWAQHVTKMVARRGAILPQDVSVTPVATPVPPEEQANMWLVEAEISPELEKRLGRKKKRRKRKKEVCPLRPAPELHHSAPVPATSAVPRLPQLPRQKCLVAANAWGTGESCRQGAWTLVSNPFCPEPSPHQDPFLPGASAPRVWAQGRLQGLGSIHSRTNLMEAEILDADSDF
Nature of the test: Gli reporter luciferase assay in NIH-3T3/Gli reporter cells stimulated with mouse Shh-N end fragment. The class given is cell-based. Particulars: NIH3T3, 1 μM compound, mouse Shh-N end fragment supernatant, 48 hr, luciferase activity, control without compound as 100, read-out: inhibitory rate (%) at 1 μM. The method, then:
Gli reporter plasmid was constructed by inserting 8× Gli-binding site and chicken δ-crystalline promoter into the upstream of luc+ of pGL3 (Promega).
HEK293 cells were grown in D-MEM medium (Invitrogen) containing 10% fetal bovine serum in a 10 cm dish and pcDNA3.1/mShh-N was introduced into the cells using FuGENE6 (Roche Applied Science). Thereafter, the HEK293 cells were cultured in a carbon dioxide gas incubator at 37° C. for 24 hours, and the medium was exchanged with D-MEM medium (Invitrogen) containing 2% fetal bovine serum. After culturing for 48 hr, a culture supernatant containing recombinant type mouse Shh-N end fragment was obtained by filtration using a filter ([…]).
Using D-MEM (Invitrogen) containing 10% fetal bovine serum, expression plasmid pcDNA3.1 and Gli reporter plasmid (pGL3/δ-cry promoter, 8× Gli binding site) produced by the method of Experimental Example 1 were introduced into NIH-3T3 cells grown in a 10 cm dish by the use of FuGENE6 (Roche Applied Science).
After culture for 24 hr, the cells were recovered, suspended in D-MEM medium containing 10% fetal bovine serum and supplemented with Geneticin (Life Technologies Oriental, Inc.) to a final concentration of 500 μg/ml, diluted to 10^4 cells/ml, plated on a 96 well plate, and cultured in a carbon dioxide gas incubator at 37° C. to give Geneticin resistant transformed cell line. […]
NIH-3T3/Gli reporter cells cultured in D-MEM (Invitrogen) containing 10% fetal bovine serum were plated in a 96 well white plate at 1×10^4 cells/well, and cultured overnight in a carbon dioxide gas incubator at 37° C. […] Bright-Glo (Promega, 50 μl) was added, and the mixture was stirred, after which luciferase activity was measured by EnVision (PerkinElmer). The inhibition rate was calculated based on the luciferase activity of the control without addition of the compound as 100.
For the molecule `CCNc1c(C(=O)NC2CCN(C(=O)CO)CC2)n(C)c2cc(CC)n(CC(=O)c3ccccc3)c(=O)c12` [Example 32, 6-ethyl-3-(ethylamino)-N-[1-(hydroxyacetyl)piperidin-4-yl]-1-methyl-4-oxo-5-(2-oxo-2-phenylethyl)-4,5-dihydro-1H-pyrrolo[3,2-c]pyridine-2-carboxamide], the inhibition at 1 µM came out at 98%.
The figure for `C=Cc1c(C(=O)NC2CCN(C(=O)CO)CC2)n(C)c2cc(CC)n(CC(=O)c3ccccc3)c(=O)c12` [Example 2, 3-ethenyl-6-ethyl-N-[1-(hydroxyacetyl)piperidin-4-yl]-1-methyl-4-oxo-5-(2-oxo-2-phenylethyl)-4,5-dihydro-1H-pyrrolo[3,2-c]pyridine-2-carboxamide] is 100%; for `CCc1c(C(=O)NC2CCN(C(=O)CO)CC2)n(C)c2cc(CC)n(CC(=O)c3ccccc3)c(=O)c12` [Example 1, 3,6-diethyl-N-[1-(hydroxyacetyl)piperidin-4-yl]-1-methyl-4-oxo-5-(2-oxo-2-phenylethyl)-4,5-dihydro-1H-pyrrolo[3,2-c]pyridine-2-carboxamide] it is 100%.
